According to patent publication US20240041878A1, “APELIN RECEPTOR MODULATORS FOR TREATMENT OF A DISORDER OR DISEASE ASSOCIATED WITH BBB PERMEABILITY” (BioAge Labs, Inc., priority 2022, published 2024):

What was measured:
Embryonic rat neurons = assay: Neuronal survival after RAC-conditioned media (ApoTox-Glo Triplex Assay); assay type: cell-based
Source text: Mice were handled in accordance with principles and guidelines established by the “Guide for the Care and Use of Laboratory Animals” and overseen by the BioAge Lab's Institutional Animal Care and Use Committee (IACUC). Mouse primary astrocytes were isolated and cultured in 0.01% poly-L-lysine coated 6- or 12-well tissue culture plates at 200,000 or 120,000 cells/well, respectively, with astrocyte growth media as previously described in (Lundquist et al. 2022. Knockdown of Astrocytic Monocarboxylate Transporter 4 in the Motor Cortex Leads to Loss of Dendritic Spines and a Deficit in Motor Learning. Mol Neurobiol 59, 1002-1017). Embryonic rat neurons were purchased from ScienCell (Cat. #R1550) and cultured in neuronal media (ScienCell, Cat. #1521) per manufacturer's protocol, with slight modifications. Briefly, neurons were thawed and resuspended in neuronal media with the addition of 1 μg laminin (Sigma, Cat. #L2020) per 1 mL culture media, then plated in 0.01% poly-L-lysine coated 96-well tissue culture plates at 60,000 cells/well. […]
For analysis of neuronal survival, culture media was collected after RAC treatment and added directly to rat neurons (previously described above) for 24 hours. After exposure, neuronal viability was assessed with the ApoTox-Glo Triplex Assay according to manufacturer's protocol (Promega, Cat. #G6320). […]

[1] = system: healthy volunteers aged 65 or older; assay: Phase 1b clinical trial, 10 days of bed rest; assay type: in vivo, human; settings: infusions
Source text: The study described herein characterizes the effects of BGE-105 on immune biomarkers in human in a Phase 1b clinical trial directed to treatment of muscular atrophy. […] The double-blind, placebo-controlled trial evaluated the safety and pharmacodynamics of BGE-105. Twenty-one volunteers underwent 10 days of bed rest while receiving infusions of BGE-105 or placebo. Biological samples from treated and placebo groups were collected on Day 6 and Day 11.

[2] = system: apelin receptor (APJ) signaling in astrocytes; assay: Western blot of APJ, p-AKT and t-AKT in astrocytes; assay type: cell-based, mouse
Experimental: To stimulate astrocytes into a reactive state found in aging and neurodegenerative diseases per previous publications (Liddelow et al., 2017; Barbar et al., 2020), a combination of the cytokines TNF-α and IL-1α, and complement factor C1q, were added at 30 ng/mL, 3 ng/mL, and 400 ng/mL, respectively, into astrocyte culture media to make ‘reactive astrocyte cocktail’ (RAC) media. Astrocytes were cultured in RAC media for 24 hours, with or without various concentrations of BGE-105 (10 nM, 50 nM, 250 nM final concentration), (Pyr^1)-Apelin-13 (50 nM; Bachem, Cat. #4029110), BAY-11-7082 (50 μM; Abcam, Cat. #ab141228) or equal volume of vehicle (0.01% DMSO in PBS) (hereafter referred to as ‘RAC treatment’). Cells in Groups 3-6 were treated with RAC for 24 hours, with or without the test compounds (n=4 per group). • Group 1: Control [CON] • Group 2: CON+BGE-105 (50 nM) [CON+105] • Group 3: Reactive control treated with RAC only [RAC] • Group 4: RAC+BGE-105 (50 nM) [RAC+105] • Group 5: RAC+Pyrm-Apelin-13 (50 nM) • Group 6: RAC+BAY-11-7082 (NF-κB inhibitor; 50 μM) [RAC+BAY]
Mice were handled in accordance with principles and guidelines established by the “Guide for the Care and Use of Laboratory Animals” and overseen by the BioAge Lab's Institutional Animal Care and Use Committee (IACUC). Mouse primary astrocytes were isolated and cultured in 0.01% poly-L-lysine coated 6- or 12-well tissue culture plates at 200,000 or 120,000 cells/well, respectively, with astrocyte growth media as previously described in (Lundquist et al. 2022. Knockdown of Astrocytic Monocarboxylate Transporter 4 in the Motor Cortex Leads to Loss of Dendritic Spines and a Deficit in Motor Learning. Mol Neurobiol 59, 1002-1017). […]
For analysis of astrocyte protein expression, cells were washed after RAC treatment with PBS and lysed with Neuronal Protein Extraction Reagent (Thermo Scientific, Cat. #87792), centrifuged to pellet debris, and supernatant was transferred to a new tube. Total protein concentration was measured by BCA protein assay (Thermo Scientific, Cat. #PI23227).

Mouse astrocyte cells = assay: Astrocyte gene expression (RT-PCR) after reactive astrocyte cocktail (RAC); assay type: cell-based
Experimental: Mouse astrocyte cells were seeded on 24-well plates at a low density of approximately 20 k astrocytes per well. To stimulate astrocytes into a reactive state found in aging and neurodegenerative diseases per previous publications (Liddelow et al., 2017; Barbar et al., 2020), a combination of the cytokines TNF-α and IL-1α, and complement factor C1q, were added at 30 ng/mL, 3 ng/mL, and 400 ng/mL, respectively, into astrocyte culture media to make 'reactive astrocyte cocktail' (RAC) media. […] Bachem, Cat. #4029110), BAY-11-7082 (50 μM; Abcam, Cat. #ab141228) or equal volume of vehicle (0.01% DMSO in PBS) (hereafter referred to as 'RAC treatment'). Cells in Groups 3-6 were treated with RAC for 24 hours, with or without the test compounds (n=4 per group). • Group 1: Control [CON] • Group 2: CON+BGE-105 (50 nM) [CON+105] • Group 3: Reactive control treated with RAC only [RAC] • Group 4: RAC+BGE-105 (50 nM) [RAC+105] • Group 5: RAC+Pyrm-Apelin-13 (50 nM) • Group 6: RAC+BAY-11-7082 (NF-κB inhibitor; 50 μM) [RAC+BAY] Media from each tested cell group was collected for cytokine release analysis. Cells were lysed for RNA collection and RT-PCR was performed to synthesis cDNA under standard conditions. Next, transcriptome analysis was performed to determine the expression level of astrocyte genes or astrocyte responsive genes. Changes of expression was normalized to β-actin (FIGS. 8 and 9). Exemplary biomarkers include CCL2, CXCL10, CXCL11, CXCL1, CXCL2, CXCL3, CXCL8, EDN1, […]3, CIS, CTRL, C3, CFB, VEGF, and IL-6.

[3] = RAC+BGE-105 [50 nM] versus CON and RAC

For `COc1cccc(OC)c1-n1c(NS(=O)(=O)[C@@H](C)[C@H](C)c2ncc(C)cn2)nnc1-c1cncc(C)c1` [BGE-105, (2S,3R)—N-(4-(2,6-dimethoxyphenyl)-5-(5-methyl-3-pyridinyl)-4H-1,2,4-triazol-3-yl)-3-(5-methyl-2-pyrimidinyl)-2-butanesulfonamide], the “cell viability relative to RAC, exogenous BGE-105” value (Embryonic rat neurons; RAC+ex105 [50 nM], added directly to neurons in addition to the toxic RAC media) was “did not provide statistical change”, the “increase of cellular viability as compared to RAC” value (Embryonic rat neurons; media of astrocytes treated with RAC+BGE105 [250 nM], added to neurons 24 hours) was “about 30%” and the tolerability ([1]; 10 days of bed rest) was “well tolerated”. The “muscle atrophy relative to placebo” value ([1]; 10 days of strict bed rest) was “statistically significant prevention”, the “increase of p-AKT expression level, as compared to t-AKT, normalized with β-actin” value ([2]; RAC+BGE-105 [50 nM]) was “about 2 folds” and the “APJ protein expression normalized with β-actin” value [2, 3] was “No significant fold change”. For the same compound, the t-AKT expression [2, 3] was “remained comparable”, the “expression of biomarkers CXCL1, C3 and IL-6 in control astrocytes” value (Mouse astrocyte cells; CON+105, BGE-105 50 nM, no RAC) was “no or minimal impact” and the “reduction of IL-6 gene expression in RAC-induced reactive astrocytes” value (Mouse astrocyte cells; RAC+105 (50 nM) versus RAC, 24 hours, p<0.0001) was 5-10 fold. The “reduction of C3 gene expression in RAC-induced reactive astrocytes” value (Mouse astrocyte cells; RAC+105 (50 nM) versus RAC, 24 hours, p=0.0015) was 10-20 fold and the “CXCL1 gene expression in RAC-induced reactive astrocytes” value (Mouse astrocyte cells; RAC+105 (50 nM) versus RAC, 24 hours, p=0.0204) was “significantly reduced”.
